Target: T1, SHMT1 (Homo sapiens, UniProt P34896)
T1 sequence (P34896 2-483): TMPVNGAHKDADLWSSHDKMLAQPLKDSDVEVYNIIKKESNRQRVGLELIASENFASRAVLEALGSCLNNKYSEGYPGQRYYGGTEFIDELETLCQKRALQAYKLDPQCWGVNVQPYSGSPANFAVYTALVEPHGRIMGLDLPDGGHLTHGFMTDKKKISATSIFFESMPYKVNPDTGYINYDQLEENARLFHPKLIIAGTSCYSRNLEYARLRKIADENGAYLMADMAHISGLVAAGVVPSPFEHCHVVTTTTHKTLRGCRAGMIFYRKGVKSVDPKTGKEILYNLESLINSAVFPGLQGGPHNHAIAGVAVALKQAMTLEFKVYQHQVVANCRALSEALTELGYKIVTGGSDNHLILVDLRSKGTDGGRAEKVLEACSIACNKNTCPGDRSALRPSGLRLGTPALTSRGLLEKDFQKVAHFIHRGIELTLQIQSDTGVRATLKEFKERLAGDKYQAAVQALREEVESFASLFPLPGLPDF
Experiment: thermal shift assay, SYPRO orange
Assay type: binding
Conditions: 2 μM apo-SHMT1, SEC buffer; covalent internal aldimine (reversible)

Structure (SMILES): Cc1ncc(COP(=O)(O)O)c(C=O)c1O [PLP, pyridoxal 5′-phosphate]
- melting temperature: selective increase in melting temperature of apo-SHMT1 upon incubation with increasing PLP amounts

Source: publication PMC6876276 (Cell Chemical Biology, 2019)
